Measurements published in patent US6391545B1 (priority 1992, dated 2002).
≈ marks a conversion by molar mass, not a printed value.

Tests used:
Format in all cases: cell-based
[1] = system: E. coli strain MCH164pMAL-marA; test: MIC complementation test, MCH164pMAL-marA; conditions: Escherichia coli, MCH164PMALMARA
[2] = system: E. coli strain MCH164pMAL-marB; test: MIC complementation test, MCH164pMAL-marB; conditions: Escherichia coli, MCH164PMALMARB
[3] = system: E. coli strain MCH164pMAL-marAB; test: MIC complementation test, MCH164pMAL-marAB; conditions: Escherichia coli, MCH164PMALMARAB
[4] = system: E. coli strain MCH164pMAK-Region II; test: MIC complementation test, MCH164pMAK-Region II; conditions: Escherichia coli
[5] = system: E. coli strain MCH164PHH193-SEQ ID NO:1; test: MIC complementation test, MCH164PHH193-SEQ ID NO:1; conditions: Escherichia coli
[6] = system: E. coli strain AG102 (Mar mutant); test: MIC complementation test, AG102 (Mar mutant); conditions: Escherichia coli

Row | SMILES | MIC [1] [µg/mL] | MIC [2] [µg/mL] | MIC [3] [µg/mL] | MIC [4] [µg/mL] | MIC [5] [µg/mL] | MIC [6] [µg/mL]
1 | CN(C)[C@@H]1C(O)=C(C(N)=O)C(=O)[C@@]2(O)C(O)=C3C(=O)c4c(O)cccc4[C@@](C)(O)[C@H]3C[C@@H]12 [Tet, tetracycline] | 3.4 (≈ 7.65 µM) | 2.1 (≈ 4.73 µM) | 4.7 (≈ 10.6 µM) | 4.7 (≈ 10.6 µM) | 13.1 (≈ 29.5 µM) | 13.8 (≈ 31.1 µM)
2 | O=C(N[C@H](CO)[C@H](O)c1ccc([N+](=O)[O-])cc1)C(Cl)Cl [clm, chloramphenicol] | 4.9 (≈ 15.2 µM) | 1 (≈ 3.09 µM) | 7.2 (≈ 22.3 µM) |  |  | > 25
3 | CCn1cc(C(=O)O)c(=O)c2ccc(C)nc21 [nal, nalidixic acid] | 5.3 (≈ 22.8 µM) | 2.1 (≈ 9.04 µM) | 6.3 (≈ 27.1 µM) | 6.8 (≈ 29.3 µM) | 13.6 (≈ 58.6 µM) | 14.5 (≈ 62.4 µM)
